Data: patent publication US10561670B2, “Compositions comprising acidic extracts of mastic gum” (REGENERA PHARMA LTD., priority 2010, dated 2020)

Test system: rat MCAO model
Assay: Rat MCAO stroke model, adhesive removal test
Assay type: in vivo
Conditions: for Time to remove the adhesive tape from the contralateral paw: day 27, subcutaneous 25 microliters twice a week, each compound 0.65% (w/w) in cottonseed oil, versus vehicle and base line (FIG. 14A)
Text: For the experiments described herein, the animals are anesthetized using ketamine/xylazine solution. The animal's neck is then shaved and a midline incision is made in the skin of the neck, and the tissue underneath is bluntly dissected. The right common carotid artery (CCA) and its junction with the external carotid artery (ECA) and internal carotid artery (ICA) are exposed by blunt dissection. The CCA is then transiently closed by positioning around it a 3-0 silk suture material. The ECA is permanently occluded with the same type of suture material. A third closure, transient, is also done in the ICA with 3-0 silk suture material.
A small hole is cut in the ECA and the nylon thread is inserted into the ICA while avoiding entrance into the pterygopalatine artery. The thread is inserted 21-25 mm until a slight resistance is felt. Then a 3-0 silk suture knot secures the thread.
Following surgery, the rats are returned to their cages and remain under a heating lamp until they awake.
Two parameters are monitored and recorded during the ischemic surgery procedure: animal's core temperature and blood glucose level (BGL).
Core temperature is monitored using rectal probe (YSI USA model 400) connected to a measuring unit (Cole Parmer model 8402-00) during the entire surgery period. Ischemic insult is started when rectal temperature is 37-38° C.
The rats of the different groups were injected twice a week subcutaneous with 25 microliters of designated test item. First injection was given three hours after stroke induction.
• Vehicle: cottonseed oil • IMDA: 0.65% (w/w) in cottonseed oil • MDA: 0.65% (w/w) in cottonseed oil • IMDA and MDA: each 0.65% (w/w) in cottonseed oil • IMDA, MDA and OA: each 0.65% (w/w) in cottonseed oil MDA alone; IMDA alone; a combination of MDA+IMDA; and a combination of OA+MDA+IMDA, were tested using a rat MCAO model, for their therapeutic capacity. Stroke induced rats were treated with each of the tested compounds and the improvement of their sensorimotor abilities were tested using the adhesive removal test. […] The time to remove the tape is recorded. […]

SMILES	Time to remove the adhesive tape from the contralateral paw	Baseline fold change, removal of adhesive tape from the contralateral paw (day 27 relative to base line score (FIG. 14B)) [fold]
CC(=CCCC(C)C1CCC2(C)C3=C(CCC12C)C1(C)CCC(=O)C(C)(C)C1CC3)C(=O)O (stereo not drawn) [IMDA, Isomasticadienoic acid]	able to improve the score of treated rats	10
C/C(=C\CC[C@H](C)[C@@H]1CC[C@]2(C)C3=CC[C@H]4C(C)(C)C(=O)CC[C@]4(C)[C@H]3CC[C@@]12C)C(=O)O [MDA, Masticadienoic acid]	only slightly better than the vehicle control	
